One block for each molecule: values may come before it.
Target: T1, BRD4 (Homo sapiens, UniProt O60885)
T1 construct: Flp-In LgBiT HEK293 cells; lytic luminescence degradation readout
Assay: BRD4 HiBiT Assay (degradation of endogenous BRD4 in HiBiT knock-in Flp-In LgBiT HEK293 cells)
Format: cell-based
Text: The purpose of the BRD4 HiBiT Assay was to assess the binding affinity of the dimer to BRD4 and subsequent protein degradation.
BRD4 HiBiT cells (Flp-In™ LgBiT and KI HiBiT) were generated by first creating a Flp-In™293 stable cell line, transfecting in the pFRT serial vector containing an integrated Flp recombination target (FRT) site (Thermo Fisher Scientific, Waltham, MA) to HEK293 cells (ATCC, Manassas, VA). The LgBiT expression sequence (Promega Corporation, Madison, WA) was then introduced into the genome via Flp recombinase-mediated DNA recombination at the FRT site. HiBiT sequence (Promega Corporation, Madison, WA) was then knocked in to the endogenous BRD4 protein in the Flp-In™ LgBiT HEK293 cells and successful clones verifying by sequencing. Work on BRD4 HiBiT cell line was performed under license from Promega Corporation (Madison, WA). Cells were maintained in DMEM (Invitrogen™, Waltham, MA) supplemented with 10% FBS (AusGeneX, Molendinar, Australia) and 1% penicillin/streptomycin (Invitrogen™, Waltham, MA) in a humidified incubator at 5% CO2, 37° C.
Compounds were dissolved in DMSO (10 mM), serially diluted from 10 mM to 1.5 nM, and pre-incubated for 2 hours. Exponentially growing cells were seeded at 1×10^4 cells per well of 384 well plate (Corning, New York #3570). Cells were treated with compound for 6 or 48 hours. Following treatment, Nano-Glo® HiBiT Lytic Detection reagent (Promega Corporation, Madison, WA) was added according to manufacturer's instructions, and signal read using BMG CLARIOstar plate reader (BMG Labtech, Ortenburg, Germany). Each data point was performed in duplicate for every experiment. A DC50 value was calculated from linear regression analysis of the plots.

[1] = BRD4 degradation in cells at 6-hour timepoint
[2] = BRD4 degradation in cells at 48-hour timepoint

SMILES: Cc1cc(C(C(=O)N2C[C@H](O)C[C@H]2C(=O)NCc2ccc(Cl)cc2OC[C@]23OB(c4ccccc4CCNC(=O)C[C@@H]4N=C(c5ccc(Cl)cc5)c5c(sc(C)c5C)-n5c(C)nnc54)O[C@H]2C[C@H]2C[C@@H]3C2(C)C)C(C)C)on1 (single isomer, unassigned) [Example 11]
- DC50 [2]: 1000 to 10000 nM

SMILES: Cc1ncsc1-c1ccc(CNC(=O)[C@@H]2C[C@@H](O)CN2C(=O)C(c2cc(OCc3ccccc3B3O[C@@H]4C[C@@H]5C[C@@H](C5(C)C)[C@]4(CCNC(=O)C[C@@H]4N=C(c5ccc(Cl)cc5)c5c(sc(C)c5C)-n5c(C)nnc54)O3)no2)C(C)C)cc1 (single isomer, unassigned) [Example 13]
- DC50 [1]: < 100 nM

SMILES: Cc1sc2c(c1C)C(c1ccc(Cl)cc1)=N[C@@H](CC(=O)NCCC[C@]13OB(c4ccccc4CCCC(=O)Nc4cccc5c4C(=O)N(C4CCC(=O)NC4=O)C5=O)O[C@H]1C[C@H]1C[C@@H]3C1(C)C)c1nnc(C)n1-2 (stereo partly drawn) [Example 2, 4-(2-((3aR,4R,6R,7aS)-3a-(3-(2-((S)-4-(4-chlorophenyl)-2,3,9-trimethyl-6H-thieno[3,2-f][1,2,4]triazolo[4,3-a][1,4]diazepin-6-yl)acetamido)propyl)-5,5-dimethylhexahydro-4,6-methanobenzo[d][1,3,2]dioxaborol-2-yl)phenyl)-N-(2-(2,6-dioxopiperidin-3-yl)-1,3-dioxoisoindolin-4-yl)butanamide]
- DC50 [1]: < 100 nM

SMILES: Cc1ncsc1-c1ccc(CNC(=O)[C@@H]2C[C@@H](O)CN2C(=O)[C@@H](NC(=O)CCc2cccc(F)c2B2O[C@H]3C[C@H]4C[C@H](C4(C)C)[C@@]3(CCNC(=O)C[C@@H]3N=C(c4ccc(Cl)cc4)c4c(sc(C)c4C)-n4c(C)nnc43)O2)C(C)(C)C)cc1 [Example 3, (2S,4R)-1-((2S)-2-(3-(2-((3aR,4R,6R,7aS)-3a-(2-(2-((6S)-4-(4-chlorophenyl)-2,3,9-trimethyl-6H-thieno[3,2-f][1,2,4]triazolo[4,3-a][1,4]diazepin-6-yl)acetamido)ethyl)-5,5-dimethylhexahydro-4,6-methanobenzo[d][1,3,2]dioxaborol-2-yl)-3-fluorophenyl)propanamido)-3,3-dimethylbutanoyl)-4-hydroxy-N-(4-(4-methylthiazol-5-yl)benzyl)pyrrolidine-2-carboxamide]
- DC50 [1]: < 100 nM

SMILES: Cc1ncsc1-c1ccc(CNC(=O)[C@@H]2C[C@@H](O)CN2C(=O)[C@@H](NC(=O)CCc2ccccc2B2O[C@H]3C[C@H]4C[C@H](C4(C)C)[C@@]3(CCCNC(=O)C[C@@H]3N=C(c4ccc(Cl)cc4)c4c(sc(C)c4C)-n4c(C)nnc43)O2)C(C)(C)C)cc1 [Example 5, (2S,4R)-1-((S)-2-(3-(2-((3aR,4R,6R,7aS)-3a-(3-(2-((S)-4-(4-chlorophenyl)-2,3,9-trimethyl-6H-thieno[3,2-f][1,2,4]triazolo[4,3-a][1,4]diazepin-6-yl)acetamido)propyl)-5,5-dimethylhexahydro-4,6-methanobenzo[d][1,3,2]dioxaborol-2-yl)phenyl)propanamido)-3,3-dimethylbutanoyl)-4-hydroxy-N-(4-(4-methylthiazol-5-yl)benzyl)pyrrolidine-2-carboxamide]
- DC50 [1]: < 100 nM

SMILES: Cc1ncsc1-c1ccc([C@H](C)NC(=O)[C@@H]2C[C@@H](O)CN2C(=O)[C@@H](NC(=O)CCc2ccccc2B2O[C@H]3C[C@H]4C[C@H](C4(C)C)[C@@]3(CCNC(=O)C[C@@H]3N=C(c4ccc(Cl)cc4)c4c(sc(C)c4C)-n4c(C)nnc43)O2)C(C)(C)C)cc1 [Example 6, (2S,4R)-1-((S)-2-(3-(2-((3aR,4R,6R,7aS)-3a-(2-(2-((S)-4-(4-chlorophenyl)-2,3,9-trimethyl-6H-thieno[3,2-f][1,2,4]triazolo[4,3-a][1,4]diazepin-6-yl)acetamido)ethyl)-5,5-dimethylhexahydro-4,6-methanobenzo[d][1,3,2]dioxaborol-2-yl)phenyl)propanamido)-3,3-dimethylbutanoyl)-4-hydroxy-N—((S)-1-(4-(4-methylthiazol-5-yl)phenyl)ethyl)pyrrolidine-2-carboxamide]
- DC50 [1]: < 100 nM

Now from value to molecule:

- DC50 [1]: < 100 nM
SMILES: Cc1sc2c(c1C)C(c1ccc(Cl)cc1)=N[C@@H](CC(=O)NCC[C@]13OB(c4ccccc4CCCC(=O)Nc4cccc5c4C(=O)N(C4CCC(=O)NC4=O)C5=O)O[C@H]1C[C@H]1C[C@@H]3C1(C)C)c1nnc(C)n1-2 (mixture of isomers) [Example 4, 4-(2-((3aR,4R,6R,7aS)-3a-(2-(2-((S)-4-(4-chlorophenyl)-2,3,9-trimethyl-6H-thieno[3,2-f][1,2,4]triazolo[4,3-a][1,4]diazepin-6-yl)acetamido)ethyl)-5,5-dimethylhexahydro-4,6-methanobenzo[d][1,3,2]dioxaborol-2-yl)phenyl)-N-(2-(2,6-dioxopiperidin-3-yl)-1,3-dioxoisoindolin-4-yl)butanamide]

- DC50 [1]: < 100 nM
SMILES: Cc1ncsc1-c1ccc([C@H](C)NC(=O)[C@@H]2C[C@@H](O)CN2C(=O)[C@H](c2cc(OCc3ccccc3B3O[C@@H]4[C@H]5CC[C@H](C5)[C@]4(CCCNC(=O)C[C@@H]4N=C(c5ccc(Cl)cc5)c5c(sc(C)c5C)-n5c(C)nnc54)O3)no2)C(C)C)cc1 (single isomer, unassigned) [Example 9]

- DC50 [2]: 1000 to 10000 nM
SMILES: Cc1cc(C(C(=O)N2C[C@H](O)C[C@H]2C(=O)NCc2ccc(Cl)cc2B2O[C@H]3C[C@H]4C[C@H](C4(C)C)[C@@]3(CCNC(=O)C[C@@H]3N=C(c4ccc(Cl)cc4)c4c(sc(C)c4C)-n4c(C)nnc43)O2)C(C)C)on1 (single isomer, unassigned) [Example 10]

- DC50 [1]: < 100 nM
SMILES: Cc1ncsc1-c1ccc(CNC(=O)[C@@H]2C[C@@H](O)CN2C(=O)[C@@H](NC(=O)CCc2ccccc2B2O[C@H]3C[C@H]4C[C@H](C4(C)C)[C@@]3(CCNC(=O)C[C@@H]3N=C(c4ccc(Cl)cc4)c4c(sc(C)c4C)-n4c(C)nnc43)O2)C(C)(C)C)cc1 [Example 1, (2S,4R)-1-((S)-2-(3-(2-((3aR,4R,6R,7aS)-3a-(2-(2-((S)-4-(4-chlorophenyl)-2,3,9-trimethyl-6H-thieno[3,2-f][1,2,4]triazolo[4,3-a][1,4]diazepin-6-yl)acetamido)ethyl)-5,5-dimethylhexahydro-4,6-methanobenzo[d][1,3,2]dioxaborol-2-yl)phenyl)propanamido)-3,3-dimethylbutanoyl)-4-hydroxy-N-(4-(4-methylthiazol-5-yl)benzyl)pyrrolidine-2-carboxamide]

- DC50 [1]: < 100 nM
SMILES: Cc1ncsc1-c1ccc([C@H](C)NC(=O)[C@@H]2C[C@@H](O)CN2C(=O)[C@@H](NC(=O)CCc2ccccc2B2O[C@H]3C[C@H]4C[C@H](C4(C)C)[C@@]3(CCCNC(=O)C[C@@H]3N=C(c4ccc(Cl)cc4)c4c(sc(C)c4C)-n4c(C)nnc43)O2)C(C)(C)C)cc1 [Example 7, (2S,4R)-1-((S)-2-(3-(2-((3aR,4R,6R,7aS)-3a-(3-(2-((S)-4-(4-chlorophenyl)-2,3,9-trimethyl-6H-thieno[3,2-f][1,2,4]triazolo[4,3-a][1,4]diazepin-6-yl)acetamido)propyl)-5,5-dimethylhexahydro-4,6-methanobenzo[d][1,3,2]dioxaborol-2-yl)phenyl)propanamido)-3,3-dimethylbutanoyl)-4-hydroxy-N—((S)-1-(4-(4-methylthiazol-5-yl)phenyl)ethyl)pyrrolidine-2-carboxamide]

- DC50 [1]: < 100 nM
SMILES: Cc1sc2c(c1C)C(c1ccc(Cl)cc1)=N[C@@H](CC(=O)NCCC[C@@]13OB(c4ccccc4CCC4CN(c5ccc(N6CCC(=O)NC6=O)cc5)C4)O[C@@H]1C[C@@H]1C[C@H]3C1(C)C)c1nnc(C)n1-2 [Example 8, 2-((S)-4-(4-chlorophenyl)-2,3,9-trimethyl-6H-thieno[3,2-f][1,2,4]triazolo[4,3-a][1,4]diazepin-6-yl)-N-(3-((3aS,4S,6S,7aR)-2-(2-(2-(1-(4-(2,4-dioxotetrahydropyrimidin-1(2H)-yl)phenyl)azetidin-3-yl)ethyl)phenyl)-5,5-dimethyltetrahydro-4,6-methanobenzo[d][1,3,2]dioxaborol-3a(4H)-yl)propyl)acetamide]

- DC50 [2]: 1000 to 10000 nM
SMILES: Cc1cc([C@H](C(=O)N2C[C@H](O)C[C@H]2C(=O)NCc2ccc(Cl)cc2OCCCB2O[C@H]3C[C@H]4C[C@H](C4(C)C)[C@@]3(CCNC(=O)C[C@@H]3N=C(c4ccc(Cl)cc4)c4c(sc(C)c4C)-n4c(C)nnc43)O2)C(C)C)on1 [Example 12, (2S,4R)—N-(4-chloro-2-(3-((3aR,4R,6R,7aS)-3a-(2-(2-((S)-4-(4-chlorophenyl)-2,3,9-trimethyl-6H-thieno[3,2-f][1,2,4]triazolo[4,3-a][1,4]diazepin-6-yl)acetamido)ethyl)-5,5-dimethylhexahydro-4,6-methanobenzo[d][1,3,2]dioxaborol-2-yl)propoxy)benzyl)-4-hydroxy-1-((R)-3-methyl-2-(3-methylisoxazol-5-yl)butanoyl)pyrrolidine-2-carboxamide]
